Results as given in PMC5655360, “Establishment of a novel hepatocyte model that expresses four cytochrome P450 genes stably via mammalian-derived artificial chromosome for pharmacokinetics and toxicity studies” (PLoS ONE, 2017).
Read-outs that look alike come from different tables or passages of the source.

What was measured:
[1] = target: T1, CYP3A4 (Homo sapiens, UniProt P08684)
Experimental: (§1) Measurement of the activity of all four CYPs was conducted using the P450-Glo™ assay (Promega, Japan), according to the manufacturer’s instructions. Briefly, cells were seeded in a 96-well plate at a density of 1×10^4 cells/well. Twenty-four hours later, test compounds and the luminescent substrate included in the kit were added into the culture media. Following 1 hour of incubation, the detection reagent was added, and the luminescence generated by the metabolic substrate within the culture media was measured using an Infinite F500 plate reader ([…]).
(§2) Curve fitting was performed using the SigmaPlot 13.0 statistical software (Systat Software, IL, USA). […] Data were presented as means ± S.D. Statistical analyses were carried out using unpaired Student’s t test. The level of statistical significance was set at P< 0.05.
(§3) Twenty compounds that are known to inhibit CYPs were used to calculate IC50 values in TC-HepG2 cells, which were then compared to those in primary human hepatocytes.
(§4) Briefly, CYP inhibitors were added to the culture media at the same time as the metabolic substrate to test direct inhibition (DI) or 1 hour prior to the addition of the metabolic substrate to test time-dependent inhibition (TDI).
Target sequence in this assay (P08684 2-503): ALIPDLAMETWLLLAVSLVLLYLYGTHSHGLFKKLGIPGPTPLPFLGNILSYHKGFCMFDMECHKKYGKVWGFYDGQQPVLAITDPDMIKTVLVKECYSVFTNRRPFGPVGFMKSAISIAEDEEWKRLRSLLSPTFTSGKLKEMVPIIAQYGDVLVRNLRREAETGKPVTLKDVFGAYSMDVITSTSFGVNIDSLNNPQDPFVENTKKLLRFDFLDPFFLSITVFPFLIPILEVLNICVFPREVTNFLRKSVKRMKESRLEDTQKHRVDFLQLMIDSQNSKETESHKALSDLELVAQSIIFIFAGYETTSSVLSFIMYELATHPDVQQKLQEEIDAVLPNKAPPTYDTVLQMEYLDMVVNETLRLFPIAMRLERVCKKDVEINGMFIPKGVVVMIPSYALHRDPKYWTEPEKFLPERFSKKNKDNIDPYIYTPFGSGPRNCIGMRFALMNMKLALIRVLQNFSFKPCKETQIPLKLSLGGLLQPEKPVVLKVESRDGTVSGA

[2] = target: T1, CYP3A4; test: in vitro
Experimental: as §1
Fig 6G–6I show the plots to determine the rate of inactivation (kobs) for the three inhibitors as depicted in Fig 6A–6F.
Macrolides (0–100 μM/L) were preincubated at 37°C for 0–30 min, and the reaction was initiated by the addition of CYP3A-specific substrate for 30 min. (G—I) Apparent inactivation rate (kobs) was estimated graphically from the slope of the plot for the natural log enzyme activity remaining after preincubation against preincubation time and was corrected for any loss of activity in the absence of the inhibitor. kinact and Ki,app values were obtained from a double reciprocal plot of kobs against inhibitor concentration. Closed circles represent TC-HepG2 cells, and opened circles represent parental HepG2 cells. Each symbol represents the average of triplicate determinations.

[3] = target: T2, CYP2D6 (Homo sapiens, UniProt P10635); test: cell-based
T2 sequence (P10635 whole entry): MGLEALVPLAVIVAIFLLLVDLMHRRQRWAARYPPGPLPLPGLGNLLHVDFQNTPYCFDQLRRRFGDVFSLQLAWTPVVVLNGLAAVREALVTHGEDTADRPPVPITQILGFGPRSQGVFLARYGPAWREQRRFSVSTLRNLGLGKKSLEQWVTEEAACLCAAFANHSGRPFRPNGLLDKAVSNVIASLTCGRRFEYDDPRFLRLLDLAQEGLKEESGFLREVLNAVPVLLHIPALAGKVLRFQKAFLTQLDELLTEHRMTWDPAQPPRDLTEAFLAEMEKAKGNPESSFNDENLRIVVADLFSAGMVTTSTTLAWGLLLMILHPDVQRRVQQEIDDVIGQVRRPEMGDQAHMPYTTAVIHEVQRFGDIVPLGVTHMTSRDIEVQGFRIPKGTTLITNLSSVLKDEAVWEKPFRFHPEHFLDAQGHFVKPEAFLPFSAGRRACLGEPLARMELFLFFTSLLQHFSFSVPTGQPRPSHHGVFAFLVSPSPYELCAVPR
Experimental: as §1, §2, §3, §4

[4] = target: T2, CYP2D6; test: cell-based; format: in vitro ADME; set-up: endogenous in cells; host or cells: primary human hepatocytes; conditions: primary human hepatocytes; mean ± S.D. of triplicate
[5] = target: T3, CYP2C19 (Homo sapiens, UniProt P33261); test: cell-based
T3 sequence (P33261 whole entry): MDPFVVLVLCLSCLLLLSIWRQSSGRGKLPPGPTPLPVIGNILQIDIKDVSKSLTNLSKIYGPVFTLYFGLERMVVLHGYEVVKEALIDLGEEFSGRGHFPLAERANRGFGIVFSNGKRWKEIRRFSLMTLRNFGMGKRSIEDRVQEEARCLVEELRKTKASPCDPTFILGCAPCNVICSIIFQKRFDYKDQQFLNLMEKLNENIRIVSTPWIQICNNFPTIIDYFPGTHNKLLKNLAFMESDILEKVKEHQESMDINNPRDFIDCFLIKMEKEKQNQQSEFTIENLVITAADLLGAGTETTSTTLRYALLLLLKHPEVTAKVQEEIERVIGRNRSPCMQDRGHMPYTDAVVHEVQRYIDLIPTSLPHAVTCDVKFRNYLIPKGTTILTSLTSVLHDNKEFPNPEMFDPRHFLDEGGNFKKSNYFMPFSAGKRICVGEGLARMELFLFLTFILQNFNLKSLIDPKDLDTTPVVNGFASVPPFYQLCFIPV
Experimental: as §1, §2, §3, §4

[6] = target: T3, CYP2C19; test: cell-based; format: in vitro ADME; set-up: endogenous in cells; host or cells: primary human hepatocytes; conditions: primary human hepatocytes; mean ± S.D. of triplicate
[7] = target: CYP2C9 (Homo sapiens, UniProt P11712); conditions: TC-HepG2 cells, Fig 5
CYP2C9, sequence (P11712 whole entry): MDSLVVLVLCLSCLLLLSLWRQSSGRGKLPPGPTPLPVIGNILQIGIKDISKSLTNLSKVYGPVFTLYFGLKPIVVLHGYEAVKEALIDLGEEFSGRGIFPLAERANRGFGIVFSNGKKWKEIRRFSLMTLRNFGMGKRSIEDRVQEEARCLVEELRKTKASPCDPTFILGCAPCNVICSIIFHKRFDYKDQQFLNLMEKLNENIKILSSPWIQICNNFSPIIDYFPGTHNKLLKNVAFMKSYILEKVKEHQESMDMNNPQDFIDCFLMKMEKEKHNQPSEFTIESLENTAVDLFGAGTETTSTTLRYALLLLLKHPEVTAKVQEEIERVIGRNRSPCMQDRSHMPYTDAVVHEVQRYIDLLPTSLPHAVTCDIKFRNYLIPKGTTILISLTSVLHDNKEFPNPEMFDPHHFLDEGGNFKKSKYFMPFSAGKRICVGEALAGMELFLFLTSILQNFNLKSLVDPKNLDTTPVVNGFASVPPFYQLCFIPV
Experimental: as §1, §2, §3, §4

[8] = tested on: HepG2 cells
[9] = tested on: TC-HepG2 cells

CC[C@H]1OC(=O)[C@H](C)[C@@H](O[C@H]2C[C@@](C)(OC)[C@@H](O)[C@H](C)O2)[C@H](C)[C@@H](O[C@@H]2O[C@H](C)C[C@H](N(C)C)[C@H]2O)[C@](C)(OC)C[C@@H](C)C(=O)[C@H](C)[C@@H](O)[C@]1(C)O [Clarithromycin]
inhibitory effect with 1 hour preincubation (TDI) compared with simultaneous addition of inhibitor and substrate (DI), CYP3A4 ([1]; TC-HepG2 cells, Fig 5): higher
inhibitory effect on CYP3A4 metabolic activity ([1]; three TC-HepG2 clones (Fig 3C)): concentration-dependent inhibitory effect
suppression of the generation of metabolites of the luminescent CYP3A4 substrate ([2]; 0-100 μM added 10, 20 or 30 min before substrate (Fig 6)): time- and concentration-dependent manner
KI (inactivation) ([2]; hepatocytes): 16 ± 4.3 µM
KI (inactivation) ([2]; human): 3.76 ± 0.42 µM

C#C[C@]1(O)CC[C@H]2[C@@H]3CCc4cc(O)ccc4[C@H]3CC[C@@]21C [Ethinylestradiol]
inhibitory effect with 1 hour preincubation (TDI) compared with simultaneous addition of inhibitor and substrate (DI), CYP3A4 ([1]; TC-HepG2 cells, Fig 5): higher

Fc1ccc([C@@H]2CCNC[C@H]2COc2ccc3c(c2)OCO3)cc1 [Paroxetine]
inhibitory effect with 1 hour preincubation (TDI) compared with simultaneous addition of inhibitor and substrate (DI), CYP2D6 [3]: higher

CC[C@H]1OC(=O)[C@H](C)[C@@H](O[C@H]2C[C@@](C)(OC)[C@@H](O)[C@H](C)O2)[C@H](C)[C@@H](O[C@@H]2O[C@H](C)C[C@H](N(C)C)[C@H]2O)[C@](C)(O)C[C@@H](C)/C(=N\OCOCCOC)[C@H](C)[C@@H](O)[C@]1(C)O [Roxithromycin]
inhibitory effect with 1 hour preincubation (TDI) compared with simultaneous addition of inhibitor and substrate (DI), CYP3A4 [1]: higher
suppression of the generation of metabolites of the luminescent CYP3A4 substrate [2]: time- and concentration-dependent manner
KI (inactivation) ([2]; hepatocytes): 13.1 ± 4.7 µM
kinact ([2]; hepatocytes): 0.000161 s⁻¹
KI (inactivation) ([2]; human): 4.6 ± 0.6 µM
kinact ([2]; human): 0.000431 s⁻¹

CN(C/C=C/C#CC(C)(C)C)Cc1cccc2ccccc12 [Terbinafine]
IC50 [3]: 0.0021 ± 0.0002 µM
IC50 [4]: 0.0099 ± 0.0002 µM

O=C(O)COc1ccc(C(=O)c2cccs2)c(Cl)c1Cl [Tienilic acid]
IC50 [5]: 5.7 ± 1.7 µM
IC50 [6]: 0.55 ± 0.02 µM
inhibitory effect with 1 hour preincubation (TDI) compared with simultaneous addition of inhibitor and substrate (DI), CYP2C9 [7]: higher

COc1cc2c(c3oc4cccc(O)c4c(=O)c13)[C@@H]1C=CO[C@@H]1O2 [sterigmatocystin]
toxicity in parental HepG2 cells lacking CYPs [8]: neither compound was toxic
cell survival rate in TC-HepG2 cells compared with parental HepG2 cells [9]: significantly lower
survival of TC-HepG2 cells [9]: concentration-dependent decrease

aflatoxin B1
toxicity in parental HepG2 cells lacking CYPs [8]: neither compound was toxic
IC50 in TC-HepG2 cells compared with HepG2 cells [9]: lower
